Assay results published in BigSolDB 2.1.

CNC(=O)c1cc(Oc2ccc(N)cc2)ccn1
solubility (mole fraction)
Conditions	in THF	in acetonitrile	in ethanol	in ethyl acetate	in methanol	in n-butanol	in n-propanol
278.15 K	0.0898	0.0273	0.00539	0.0528	0.00809	0.00322	0.00451
283.15 K	0.0978	0.0317	0.00707	0.0637	0.0117	0.0044	0.00593
288.15 K	0.108	0.0394	0.00914	0.0773	0.0158	0.00563	0.00778
293.15 K	0.118	0.0491	0.0136	0.0919	0.0203	0.00781	0.0111
298.15 K	0.129	0.0595	0.0179	0.11	0.0276	0.00986	0.0135
303.15 K	0.143	0.0737	0.0249	0.129	0.0369	0.0132	0.0181
308.15 K	0.158	0.0897	0.0331	0.151	0.0488	0.0171	0.0237
313.15 K	0.173	0.109	0.044	0.179	0.0634	0.0222	0.0308
318.15 K	0.192	0.133	0.0587	0.207	0.082	0.0287	0.0396
323.15 K	0.211	0.161	0.0764	0.238	0.105	0.0366	0.0503
328.15 K	0.233	0.195	0.0999	0.28	0.134	0.0466	0.0638
